Broadly, the IC50 is the concentration that gives 50% inhibition.

Where only a bound is given, the exact number is not on record here.

The target of this experiment is T1, human leukocyte 5-lipoxygenase (Homo sapiens, UniProt P09917).
T1 construct: endogenous in cells; host or cells: leukocytes from fresh blood of normal adult men
T1 sequence (P09917 1-674): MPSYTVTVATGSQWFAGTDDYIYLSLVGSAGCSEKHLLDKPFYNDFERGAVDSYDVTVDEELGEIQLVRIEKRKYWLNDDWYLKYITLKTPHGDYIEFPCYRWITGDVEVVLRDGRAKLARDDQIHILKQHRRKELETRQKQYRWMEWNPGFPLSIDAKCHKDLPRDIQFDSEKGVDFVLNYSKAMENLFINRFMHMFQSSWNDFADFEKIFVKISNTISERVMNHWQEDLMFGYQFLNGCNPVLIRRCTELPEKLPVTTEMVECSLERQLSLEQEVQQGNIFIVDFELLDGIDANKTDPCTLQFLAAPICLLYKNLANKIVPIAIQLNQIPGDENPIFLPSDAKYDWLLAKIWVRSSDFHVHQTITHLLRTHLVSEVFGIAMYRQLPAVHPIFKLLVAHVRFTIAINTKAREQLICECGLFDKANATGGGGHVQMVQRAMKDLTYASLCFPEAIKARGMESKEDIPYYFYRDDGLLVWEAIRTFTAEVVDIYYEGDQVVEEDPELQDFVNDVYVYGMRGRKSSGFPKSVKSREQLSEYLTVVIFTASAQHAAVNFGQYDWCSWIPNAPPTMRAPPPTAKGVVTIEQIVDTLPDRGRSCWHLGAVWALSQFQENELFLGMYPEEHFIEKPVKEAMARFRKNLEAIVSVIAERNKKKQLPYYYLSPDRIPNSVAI
Put plainly: 5-Lipoxygenase Inhibitor in Human Leukocytes (5LOA1). The format is cell-based. As to conditions: 100 μM exogenous arachidonic acid; read-out: IC50 5LOA (100)*. An excerpt: To Evaluate the Effect of Each Compounds as a 5-Lipoxygenase Inhibitor in Comparison to Standard Reference Agents in Human Leukocytes (5LOA1)
The purpose of this assay is to evaluate the activity of each compound as an inhibitor of human leukocyte 5-lipoxygenase.
Arachidonic acid and calcium ionophore A23187 are obtained from Sigma (St. Louis, MO). Silica gel plates, GF are obtained from Analtech (Newark, DE). Arachidonic acid, (1-^14 C) and 5-HETE (^3 H), 5 (S)-hydroxy-6-trans,8,11,14-cis eicosatetraenoic acid, are obtained from New England Nuclear (Boston, MA). Six percent Dextran-70 in 0.9% NaCl is obtained from Cutter Labs (Berkeley, CA).
Preparation of Leukocytes
Fresh blood from normal adult men who had not received any drugs for at least the previous five days is obtained by the Community Research Clinic (WL/PD) using venipuncture and collected into heparinized vacuotainer tubes. To every 100 ml of pooled blood is added 25 ml of dextran solution (6% dextran -70 in 0.9% sodium chloride containing 3% dextrose) and this is mixed gently in a plastic cylinder. The mixture is left to stand at room temperature for at least 90 minutes. The upper layer which is rich in leukocytes and platelets is then carefully decanted into 50 ml plastic tubes and centrifuged at about 100×g for eight minutes in an IEC centrifuge and rotor number 269 (about 600 rpm). The supernatant fluid is discarded and the pellet is resuspended in 10 ml of 0.87% ammonium chloride for exactly two minutes. This procedure is to lyse completely contaminating red blood cells. Leukocytes are then separated by centrifugation for ten minutes. The pellet is washed three times by suspension in 20 ml PBS (sodium chloride, 7.1 g; Na2 HPO4, 1.15 g; KH2 PO4, 0.2 g, and KCl, 0.2 g/L) and centrifuged as before. The final pellet is suspended in PBS containing 0.87 mM CaCl2. Viability of the cells is then checked using trypan blue exclusion method and is found to be over 90%.
5-Lipoxygenase Enzyme Assay
Cells in suspension (0.98 ml) are incubated with or without test compounds for five minutes at 37° C. in a shaking water bath. At this time a 17 μl mixture is prepared per 1 ml of cell suspension: 100 mM arachidonic acid, 1 μl, 0.05 μCi ^14 C-arachidonic acid in 5 μl; 1 mM calcium ionophore A23187, 10 μl (1). This mixture is added and the incubation continued for five minutes. The reaction is stopped by adding four volumes of absolute ethanol and the mixture is kept in ice for 30 minutes. The floculated precipitate is separated by centrifugation at about 37,000×g for 20 minutes (Beckman Instruments rotor number 40). The alcohol extract is taken to dryness under a stream of nitrogen and the residue is dissolved in 100-200 μl absolute ethanol. At the time any turbidity is removed by centrifugation. An aliquot (25-50 μl) is applied onto 20×20 cm silica gel TLC plate and developed using the following solvent system: diethyl ether, petroleum ether (20°-40° C.), acetic acid (50:50:1 v/v). Zones of 1 cm apart are scraped from the TLC plate and transferred to mini-vials. Methanol (0.5 ml) is added to dissolve the radioactivity adsorbed to the silica gel and scintillation fluid (H.P., Beckman), 5 ml is then added and vials are counted in a liquid scintillation counter. A sample of ^3 H-5-HETE is applied and used for the identification of the formed 5-HETE.
Total radioactivity in the test as well as the control samples are normalized and the amount of 5-HETE present is calculated accordingly.
IC50 values are defined as the concentrations of test agents which caused a 50% inhibition of the formation of 5-HETE as compared to control and are determined by inspection of the concentration-response curves.
Turning to `CN(C(=O)c1ccccc1-c1ccccc1C(=O)O)c1ccc(CCc2ccc(Cl)c(Cl)c2)cc1` [Example 5, [1,1'-Biphenyl]-2-carboxylic acid, 2'-[[[4-[2-(3,4-dichlorophenyl)ethyl]phenyl]methylamino]carbonyl]-], the IC50 was 40 µM. With `O=C(O)c1ccccc1-c1ccccc1C(=O)Nc1ccc(CCc2ccc(Cl)c(Cl)c2)cc1` [Example 3, [1,1'-Biphenyl]-2-carboxylic acid, 2'-[[[4-[2-(3,4-dichlorophenyl)ethyl]phenyl]amino]carbonyl]-], the IC50 came to 4.6 µM. Then `O=C(O)c1ccccc1-c1ccccc1C(=O)Nc1ccc(CCCc2ccc(Cl)c(Cl)c2)cc1` [Example 1, [1,1'-Biphenyl]-2-carboxylic acid, 2'-[[[4-[3-(3,4-dichlorophenyl)propyl]phenyl]amino]carbonyl]-], with 9.6 µM.

`O=C(O)c1ccccc1-c1ccccc1C(=O)Nc1cccc(CCc2ccc(Cl)c(Cl)c2)c1` [Example 4, [1,1'-Biphenyl]-2-carboxylic acid, 2'-[[[3-[2-(3,4-dichlorophenyl)ethyl]phenyl]amino]carbonyl]-]: the IC50 came to 9.3 µM. Then `CN(C(=O)c1ccccc1-c1ccccc1C(=O)O)c1ccc(CCc2ccc(Cl)cc2)cc1` [Example 8], with above 20 µM.

As to `COc1ccc(CCc2ccc(NC(=O)c3ccccc3-c3ccccc3C(=O)O)cc2)cc1OC` [Example 7, [1,1'-Biphenyl]-2-carboxylic acid, 2'-[[[4-[2-(3,4-dimethoxyphenyl)ethyl]phenyl]amino]carbonyl]-], the IC50 is above 20 µM. Then `O=C(O)c1ccccc1-c1ccccc1C(=O)Nc1ccc(CCc2ccc(Cl)cc2)cc1` [Example 11, [1,1'-Biphenyl]-2-carboxylic acid, 2'-[[4-[2-[(4-chlorophenyl)ethyl]phenyl]amino]carbonyl]-], with 12 µM.

Values taken from patent US4786755A, “Diphenic acid monoamides” (Warner-Lambert Company, priority 1986, dated 1988).
